Measured values from patent EP3575287A1, “INHIBITORS OF N-ACYLPHOSPHATIDYLETHANOLAMINE PHOSPHOLIPASE D (NAPE-PLD)” (Universiteit Leiden, priority 2018, dated 2019).
pIC50: −log10 of the molar value.

Target: T1, human NAPE-PLD (Homo sapiens, UniProt Q6IQ20)
T1 construct: Full length human cDNA NAPE-PLD was obtained from Natsuo Ueda; made in house; host or cells: HEK293T cells, transient transfection (pcDNA3.1); membrane fraction used
Assay: In vitro NAPE-PLD activity assay
Format: biochemical
Conditions: membrane protein fraction of HEK293T cells overexpressing human NAPE-PLD; substrate PED6 1 µM; 30 minutes preincubation at 37 °C
Method: Full length human cDNA NAPE-PLD was obtained from Natsuo Ueda^1 and cloned into mammalian expression vector pcDNA3.1, containing a C-terminal Flag-tag and genes for ampicillin and neomycin resistance. All plasmids were grown in XL-10 Z-competent cells and prepped (Maxi Prep, Qiagen). Sequence analysis for the confirmation of the sequences was performed at the Leiden Genome Technology Centre.
HEK293T were cultured at 37 °C and 7% CO2 in DMEM (Sigma Aldrich, D6546) with glutamax, penicillin (100 µg/ml), streptomycin (100 µg/ml) and 10% New Born Calf Serum iron supplemented (Hyclone SH30072.03). Cells were passaged twice a week to appropriate confluence.
24 hours before transfection 10^7 cells are seeded on a 15 cm dish. Two hours before transfection medium is refreshed, low volume. Transfection is performed with PEI in a ratio of 3:1 with human NAPE-PLD or Mock pcDNA3.1 Neo, 20 µg per dish. Medium is refreshed after 24 hours and cells are harvested after 72 hours.
Cell pellets are re-suspended in lysis buffer: 20 mM Hepes, 2 mM DTT, 0.25 M sucrose, 1 mM MgCl2, 2.5 U/ml benzonase and incubated 30 minutes on ice. The cytosolic fraction (supernatant) is separated from the membranes by ultra-centrifugation (32000 rpm for 30 minutes 100,000g). The pellet is resuspended in storage buffer: 20 mM Hepes, 2 mM DTT (membrane fraction). All samples are stored at -80°C. Enzyme concentrations are determined using a Bradford assay.
The NAPE-PLD activity assay is based on a previously reported method with small alterations.^2 The membrane protein fraction from transient overexpression of human NAPE-PLD in HEK293T cells was diluted to 0.4 mg/ml in assay buffer: 50 mM Tris-HCl (pH 7.5), 0.02% Triton X-100, 150 mM NaCl. The substrate PED6 (Invitrogen) 1 mM stock was consecutively diluted in DMSO (10x) and in assay buffer (10x) to make a 10 µM working solution. […] The assay is performed in a dark Greiner 96 wells plate, end volume 100 µl. The compound or DMSO is incubated with membrane protein lysate (final concentration 0.04 mg/ml) for 30 minutes at 37 °C. […] Mock lysate with DMSO is used for background substraction. IC50 curves are generated used Graphpad Prism v6.

T1 sequence (Q6IQ20 whole entry): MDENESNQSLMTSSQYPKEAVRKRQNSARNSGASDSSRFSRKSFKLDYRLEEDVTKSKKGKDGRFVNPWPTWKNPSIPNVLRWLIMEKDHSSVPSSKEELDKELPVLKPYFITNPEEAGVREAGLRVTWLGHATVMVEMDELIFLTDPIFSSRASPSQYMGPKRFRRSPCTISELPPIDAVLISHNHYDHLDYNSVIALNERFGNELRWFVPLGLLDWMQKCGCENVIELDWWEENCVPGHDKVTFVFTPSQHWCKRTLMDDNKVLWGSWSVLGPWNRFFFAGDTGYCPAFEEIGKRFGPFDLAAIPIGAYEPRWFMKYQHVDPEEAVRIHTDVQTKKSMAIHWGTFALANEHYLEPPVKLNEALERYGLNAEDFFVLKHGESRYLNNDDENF

pIC50	SMILES
5.74	Cc1ccc(CCN(C)c2nc(C(=O)NCC3CC3)cc(N3CCOCC3)n2)cc1 [Example 69, N-(cyclopropylmethyl)-2-(methyl(4-methylphenethyl)amino)-6-morpholinopyrimidine-4-carboxamide]
5.96	O=C(NCC1CC1)c1cc(N2CCOCC2)nc(N(CCc2ccccc2)C2CC2)n1 [Example 70, 2-(cyclopropyl(phenethyl)amino)-N-(cyclopropylmethyl)-6-morpholinopyrimidine-4-carboxamide]
6.31	CN(CCc1ccccc1-c1ccccc1)c1nc(C(=O)NCC2CC2)cc(N2CCOCC2)n1 [Example 71, 2-((2-([1,1'-biphenyl]-2-yl)ethyl)(methyl)amino)-N-(cyclopropylmethyl)-6-morpholino-pyrimidine-4-carboxamide]
6.19	CCN(CCc1ccccc1)c1nc(C(=O)NCC2CC2)cc(N2CCOCC2)n1 [Example 72, N-(cyclopropylmethyl)-2-(ethyl(phenethyl)amino)-6-morpholinopyrimidine-4-carboxamide]
5.59	COc1ccc(CC2CCCCN2c2nc(C(=O)NCC3CC3)cc(N3CCOCC3)n2)cc1 (stereo not drawn) [Example 73, N-(cyclopropylmethyl)-2-(2-(4-methoxybenzyl)piperidin-1-yl)-6-morpholinopyrimidine-4-carboxamide]
5.49	O=C(NCC1CC1)c1cc(N2CCOCC2)nc(N2CCN(C(=O)OCc3ccccc3)C(c3ccccc3)C2)n1 (stereo not drawn) [Example 74, benzyl 4-(4-((cyclopropylmethyl)carbamoyl)-6-morpholinopyrimidin-2-yl)-2-phenylpiperazine-1-carboxylate]
5.84	CN(CCc1ccccc1)c1cc(C(=O)NCC2CC2)cc(N2CCOCC2)n1 [Example 75, N-(cyclopropylmethyl)-2-(methyl(phenethyl)amino)-6-morpholino isonicotinamide]
6.54	CN(C)c1cc(C(=O)NCC2CC2)nc(N(C)CCc2ccccc2)n1 [Example 76, N-(cyclopropylmethyl)-6-(dimethylamino)-2-(methyl(phenethyl)amino)pyrimidine-4-carboxamide]
6.30	O=C(NCC1CC1)c1cc(N2CCOCC2)nc(N(CCc2ccccc2)c2ccccc2)n1 [Example 77, N-(cyclopropylmethyl)-6-morpholino-2-(phenethyl(phenyl)amino)pyrimidine-4-carboxamide]
6.05	Cc1ccccc1CCN(C)c1nc(C(=O)NCC2CC2)cc(N2CCOCC2)n1 [Example 78, N-(cyclopropylmethyl)-2-(methyl(2-methylphenethyl)amino)-6-morpholinopyrimidine-4-carboxamide]
4.98	CN(CCc1ccccc1)c1cc(N2CCOCC2)cc(C(=O)NCC2CC2)n1 [Example 79, N-(cyclopropylmethyl)-6-(methyl(phenethyl)amino)-4-morpholinopicolinamide]
4.97	CN(CCc1cccnc1)c1nc(C(=O)NCC2CC2)cc(N2CCOCC2)n1 [Example 80, N-(cyclopropylmethyl)-2-(methyl(2-(pyridin-3-yl)ethyl)amino)-6-morpholinopyrimidine-4-carboxamide]
4.94	CN(CCc1ccncc1)c1nc(C(=O)NCC2CC2)cc(N2CCOCC2)n1 [Example 81, N-(cyclopropylmethyl)-2-(methyl(2-(pyridin-4-yl)ethyl)amino)-6-morpholinopyrimidine-4-carboxamide]
5.11	O=C(NCC1CC1)c1cc(N2CCOCC2)nc(N2CCNC(c3ccccc3)C2)n1 (stereo not drawn) [Example 82, N-(cyclopropylmethyl)-6-morpholino-2-(3-phenylpiperazin-1-yl)pyrimidine-4-carboxamide]
6.11	COc1ccccc1CCN(C)c1nc(C(=O)NCC2CC2)cc(N2CCOCC2)n1 [Example 83, N-(cyclopropylmethyl)-2-((2-methoxyphenethyl)(methyl)amino)-6-morpholinopyrimidine-4-carboxamide]
4.89	CN(CCc1ccccn1)c1nc(C(=O)NCC2CC2)cc(N2CCOCC2)n1 [Example 84, N-(cyclopropylmethyl)-2-(methyl(2-(pyridin-2-yl)ethyl)amino)-6-morpholinopyrimidine-4-carboxamide]
6.41	CN(CCc1ccccc1)c1nc(C(=O)NCC2CC2)cc(N2CCCC(F)(F)C2)n1 [Example 86, N-(cyclopropylmethyl)-6-(3,3-difluoropiperidin-1-yl)-2-(methyl(phenethyl)amino)pyrimidine-4-carboxamide]
4.95	CN(CCc1ccccc1)c1nc(Oc2ccccc2)cc(C(=O)NCC2CC2)n1 [Example 87, N-(cyclopropylmethyl)-2-(methyl(phenethyl)amino)-6-phenoxypyrimidine-4-carboxamide]
